Test results published in patent US20050004016A1, “Method of obtaining peptides with tissue-specific activity and pharmaceutical compositions on their basis” (priority 2000, published 2005).
Residues, ends and D or L forms follow the SMILES beside them.

Key:
[1] = tested on: monolayer hepatocyte culture; assay: Intensity of protein synthesis ([3H]-leucin inclusion) in monolayer hepatocyte culture; type: cell-based, rats; conditions: 0.005 μg/ml, 4 hours
Method: Intensity of the protein synthesis was investigated in the hepatocyte culture of rats aged 4, 8 and 18 months.
To isolate hepatocytes, rat liver was perfused with calcium-free Hanks' solution added 0.5 mM of EDTA and then 0.05% collagenase solution in Medium 199. The cellular suspension was filtered out and centrifuged. The hepatocyte suspension in the concentration of 5×10^5 was introduced into Petri's dishes, their bottoms surfaced with collagen-covered glass. Applied Medium 199 contained no bovine serum but was added 0.2 mg/ml of albumen and 5 μg/ml of insulin. The dishes with glass-covered bottoms were placed in a thermostat at 37° C., aerated and added CO2. […]
Protein synthesis was assessed by [^3H]-leucin inclusion regarding the standard errors for a free marked leucin pull in the same culture. […] Radioactivity of the pull of free intracellular leucin and cellular proteins (in hyamine fraction) after adding the corresponding scintillators was measured on a radioactivity counter SL-30.
The intensity of protein synthesis was calculated by the formula Icorr=Ii×Pav/Pi(cpm), where
Icorr—inclusion of leucin regarding the standard errors of free leucin pull, Ii—measured radioactivity of the proteins for i-culture, Pav—mean radioactivity of proteins and pull for the cultures studied in this experiment, Pi—total radioactivity of proteins and pull of the same culture. […]

[2] = tested on: liver explants; assay: Growth of liver explants (square index, organotypic culture); type: cell-based, chicken embryos; conditions: 20 ng/ml
Method: The experiments were carried out in 53 liver fragments of 10-11 days old chicken embryos. Nutrient medium for the explant cultivation consisted of 35% of Eagle's solution, 25% of foetal calf serum, 35% of Hank's solution and 5% of chicken embryonic extract. The mixture is added glucose (0.6%), insulin (0.5 unit/ml), penicillin (100 unit/m) and glutamine (2 mM). […] Lys-Glu-Asp-Ala tetrapeptide was added to the experimental medium in the concentrations of 2, 10, 20, 50, 100, 200 and 400 ng/mL Square index (SI) was taken for a biological activity criterion and calculated as a correlation of the total explant square including the growth zone to the initial square of a liver fragment. The SI values were expressed percent, the control SI value taken for 100%.

[3] = tested on: brain subcortical structure explants; assay: Growth of brain subcortical structure explants (square index, organotypic culture); type: cell-based, chicken embryos; conditions: 100 ng/ml, control SI = 100%
Method: Experiments were conducted on 69 fragments of brain subcortical structures of 10-11-days' old chicken embryos. The nutrient medium for cultivation consisted of 35% Eagle's solution, 25% calf foetal serum, 35% Hanks' solution, 5% chicken embryonic extract. The medium was also added glucose (0.6%), insulin (0.5 unit/ml), penicillin (100 unit/ml), glutamine (2 mM). Fragments of the brain subcortical structures were placed in this medium and cultivated in Petri's dishes in a thermostat at 36.7° C. for 48 hours. The experimental medium was added Ala-Glu-Asp-Gly tetrapeptide and Epithalamin in the concentrations of 2, 10, 20, 50, 100, 200, 400 ng/ml. Square index (SI) considered the criterion of biological activity. It was counted as the ratio between the total explant square including the growth zone and the initial square of the subcortical structure fragment Significance of differences between the average values of SI was assessed by Student's t-criterion. ST values were expressed percent, the control SI value being taken for 100%.
The growth zone of the control explants of the brain, subcortical structures included short neurites, migrating glia and fibroblast-resembling cells.
Immediate influence of the substances upon the fragments of the brain subcortical structures was investigated in the following experimental series.

[4] = tested on: cerebral cortex explants; assay: Growth of cerebral cortex explants (square index, organotypic culture); type: cell-based, chicken embryos
Method: The experiments are conducted on 73 fragments of cerebral cortex explants of 10-11-days' chicken embryos. The nutrient medium for cultivation consisted of 35% Eagle's solution, 25% calf foetal serum, 35% Hanks' solution, 5% chicken embryonic extract. The medium was also added glucose (0.6%), insulin (0.5 unit/ml), penicillin (100 unit/ml), glutamine (2 mM). Fragments of the cerebral cortex were placed in this medium and cultivated in Petri's dishes in a thermostat at 36.7° C. for 48 hours. The experimental medium is was added Ala-Glu-Asp-Pro tetrapeptide and Cortexin in the concentrations of 2, 10, 20, 50, 100, 200, 400 ng/ml. Square index (SI) was considered the criterion of biological activity. It was counted as the ratio between the total explant square including the growth zone and the initial square of the cerebral cortex fragment and. Significance of differences between the average values of SI was assessed by Student's t-criterion. SI values were expressed per cent, the control SI value being taken for 100%.
The growth zone of the control cerebral cortex explants included short neurites, migrating glia and fibroblast cells.
Immediate influence of the substances upon the cerebral cortex fragments was investigated in the following experimental series.

In the case of `C[C@H](NC(=O)[C@H](CC(=O)O)NC(=O)[C@H](CCC(=O)O)NC(=O)[C@@H](N)CCCCN)C(=O)O` [Lys-Glu-Asp-Ala tetrapeptide, lysyl-glutamyl-aspartyl-alanine] (H-KEDA-OH), the “amplitude of synthesis oscillations” value ([1]; hepatocytes of older rats) was “increased considerably”, the “level of protein synthesis in hepatocytes” value ([1]; hepatocytes of rats aged 4, 8 and 18 months, strongest effect in cells of older animals) was “raised the level of protein synthesis” and the “effect on liver explants by longer terms of cultivation” value ([2]; cultivation up to 7 days) was “analogous stimulating effect”. The “increase in the explant SI as compared to the control value” ([2]; third day of the cultivation, control SI = 100%) was 24%.
With `C[C@H](N)C(=O)N[C@@H](CCC(=O)O)C(=O)N[C@@H](CC(=O)O)C(=O)NCC(=O)O` [Ala-Glu-Asp-Gly tetrapeptide, alanyl-glutamyl-aspartyl-glycine] (H-AEDG-OH) the “SI of the experimental explants higher than that of the control fragments” value [3] was 24%.
In the case of `C[C@H](N)C(=O)N[C@@H](CCC(=O)O)C(=O)N[C@@H](CC(=O)O)C(=O)N1CCC[C@H]1C(=O)O` [Ala-Glu-Asp-Pro tetrapeptide, L-alanyl-L-glutamyl-L-aspartyl-L-proline] (H-AEDP-OH), the “SI of the experimental explants higher than that of the control cerebral cortex fragments” value ([4]; 20 ng/ml, control SI = 100%) was 40±7% and the “concentration stimulating the fragments of cultivated cerebral cortex (threshold of effective concentrations)” value ([4]; tested 2-400 ng/ml) was 20 ng/mL.
